Measured values from publication PMC10319141, “Imidazoquinolines with improved pharmacokinetic properties induce a high IFNα to TNFα ratio in vitro and in vivo” (Frontiers in Immunology, 2023).
Blank lines part the entries; values can stand above or below the molecule they belong to.

Columns and labels:
human TLR8 = target: T1, human TLR8 (Homo sapiens, UniProt Q9NR97); assay: HEK-Blue hTLR8 SEAP reporter assay; type: cell-based; settings: for TLR8 activity rel. to assay max: average maximal SEAP secretion relative to maximum secretion observed in the assay; for SEAP secretion from HEK-Blue hTLR-8: in words
T1 construct: host or cells: HEK blue hTLR8 reporter cells
T1 sequence (Q9NR97 27-1041): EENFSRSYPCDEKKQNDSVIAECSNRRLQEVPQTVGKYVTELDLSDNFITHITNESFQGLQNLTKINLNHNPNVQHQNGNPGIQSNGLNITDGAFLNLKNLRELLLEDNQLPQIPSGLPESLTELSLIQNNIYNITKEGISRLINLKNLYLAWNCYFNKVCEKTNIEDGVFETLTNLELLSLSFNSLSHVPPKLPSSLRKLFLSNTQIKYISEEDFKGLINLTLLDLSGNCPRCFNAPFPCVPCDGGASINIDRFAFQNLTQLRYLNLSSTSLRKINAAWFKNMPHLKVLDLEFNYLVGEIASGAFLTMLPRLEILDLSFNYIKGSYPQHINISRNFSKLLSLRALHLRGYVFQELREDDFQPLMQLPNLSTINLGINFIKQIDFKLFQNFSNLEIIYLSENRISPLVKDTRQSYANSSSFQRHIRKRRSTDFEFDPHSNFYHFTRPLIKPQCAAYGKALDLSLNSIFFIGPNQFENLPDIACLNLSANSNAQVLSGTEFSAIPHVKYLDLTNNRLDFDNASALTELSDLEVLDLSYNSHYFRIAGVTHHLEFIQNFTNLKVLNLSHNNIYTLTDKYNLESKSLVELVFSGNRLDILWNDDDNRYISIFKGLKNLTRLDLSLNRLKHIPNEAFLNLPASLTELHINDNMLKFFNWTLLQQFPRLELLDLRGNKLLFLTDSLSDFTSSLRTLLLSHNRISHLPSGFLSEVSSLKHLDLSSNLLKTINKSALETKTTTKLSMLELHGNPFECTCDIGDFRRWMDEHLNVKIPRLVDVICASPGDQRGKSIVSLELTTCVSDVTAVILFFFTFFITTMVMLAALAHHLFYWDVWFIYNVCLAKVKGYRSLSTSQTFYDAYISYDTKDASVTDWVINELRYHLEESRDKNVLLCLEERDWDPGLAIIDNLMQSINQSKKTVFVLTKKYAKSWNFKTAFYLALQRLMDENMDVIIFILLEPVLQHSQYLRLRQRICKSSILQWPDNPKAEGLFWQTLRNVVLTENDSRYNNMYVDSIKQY
Method: HEK blue hTLR7 or hTLR8 reporter cells (Invivogen) were cultivated in DMEM High Glucose (Biowest) according to the manufacturer’s instructions. Cells were treated with test compounds and controls at various concentrations in serum-free DMEM and incubated at 37°C, 5% CO2 for 24 h before supernatants were collected.
Relative secreted embryonic alkaline phosphatase (SEAP) activity in the supernatants was determined by quantification of para-Nitrophenyl Phosphate (pNPP)-turnover. Supernatants were diluted 10-fold in a solution containing 1 mM MgCl2, 1 M diethanolamine and 1 mg/mL pNPP and incubated at RT for 15 min before the reaction was stopped by the addition of 0.25 volumes of 1 M NaOH. Absorbance was measured at 405 nm on a Versamax microplate reader (Molecular Devices) and normalized to the mean of >5 solvent controls.
To obtain reliable estimates, replicate measurements of a minimum of 2 experiments were normalized to the maximal SEAP activity of a compound in a given experiment and pooled before fitting a non-linear function to the data.

[1] = system: TNFα and IFNα in peripheral plasma; assay: Cytokine AUC in peripheral plasma after activity-adjusted s.c. doses (Figure 5C, Table 2 bottom); type: in vivo, C57BL/6 mice; settings: for IFNα AUC / TNFα AUC: 8 h period; for IFNα AUC / TNFα AUC / INFα AUC / TNFα AUC: doses adjusted to activity (bottom section); for dose ratio, times the molar dose of RSQ leading to comparable amounts of IFNα / dose ratio, times the molar dose of RSQ necessary to induce similar levels of TNFα: comparison of AUC, s.c.
Method: (§1) Cytokine concentrations in samples were quantified either by ELISA (hTNFα, R&D Systems; hIFNα, Mabtech) or cytometric bead arrays (CBA, LegendPlex mouse anti-virus response panel, BioLegend) according to the manufacturer’s instructions. CBAs were acquired on a ZE5 Cell Analyzer (Bio-Rad) and analyzed using the LegendPlex Software Suite (Qognit/BioLegend). Absorbance of ELISA-samples was quantified using a Versamax microplate reader (Molecular Devices).
(§2) Formulation. Test compounds were prepared for application in either 1% Tween 80, 9% PEG400 in ultrapure water (Biowest) (i.v., i.p., p.o. application) or 5 mM citric acid in 0.9% saline (Braun) (subcutaneous application). If compounds were administered subcutaneously, injections were carried out into the neck crease.
(§3) Collection of Samples. Mice were bled from the tail vein at various timepoints. Heparin (Sigma) or K2-EDTA (Sigma) was added to blood samples to a final […] concentration of 10-15 Unit or 5 mM. Plasma was generated by centrifugation at 6800xg for 8 min at 4°C and stored at -80°C until analyzed by ELISA or CBA. Animals were sacrificed after the indicated time points by CO2 inhalation. Heart blood and organs for compound quantification by HPLC-MS/MS were collected post mortem and stored at –20°C until extracted as described above.
Compound concentration in (A) peripheral blood collected via tail bleeding before, 15, 30 60, 120, 240, 360 and 480 min after s.c. compound application and (B) organs collected after 8 h was assessed via HPLC-MS/MS. (A, B) Data are presented as mean ± SD. (C) Levels of TNFα and IFNα as well as (D) IL6, CXCL1, CCL2, IFNβ, IFNγ and IL10 in tail plasma over time were determined via cytometric bead array. Area under the curve (AUC) of each cytokine was plotted against compound concentration. Data are represented as mean ± 95% confidence interval.

[2] = system: TNFα and IFNα in peripheral plasma; assay: Cytokine profile in peripheral plasma after equimolar s.c. doses (Figure 4B, Table 2 top); type: in vivo, C57BL/6 mice; settings: for IFNα AUC / TNFα AUC: 8 h period, equimolar doses (top section), pooled plasma of 3 animals; for IFNα plasma levels over the study period: in words
Method: as §1, §2, §3
(A) Organs were sampled 8 h after treatment and compound concentration was determined via HPLC-MS/MS. Data are presented as mean ± SD. (B) Cytokine levels in tail plasma over time were determined via cytometric bead array. At each sampling timepoint the plasma of mice in one treatment group was pooled.

- TLR8 activity rel. to assay max (human TLR8): 11% ± 8%
- SEAP secretion from HEK-Blue hTLR-8 (human TLR8): close to baseline
SMILES: CCCCc1nc2c(N)nc3ccccc3c2n1CCC1CCNCC1 [A1]
- IFNα AUC ([1]; 1 µmol/kg s.c.): 70000 pg·min/mL
- TNFα AUC ([1]; 1 µmol/kg s.c.): 9700 pg·min/mL
- INFα AUC / TNFα AUC ([1]; 1 µmol/kg s.c.): 7
- IFNα AUC ([1]; 3 µmol/kg s.c.): 490000 pg·min/mL
- TNFα AUC ([1]; 3 µmol/kg s.c.): 11000 pg·min/mL
- INFα AUC / TNFα AUC ([1]; 3 µmol/kg s.c.): 44
- IFNα AUC ([1]; 6 µmol/kg s.c.): 1.1e+06 pg·min/mL
- TNFα AUC ([1]; 6 µmol/kg s.c.): 20000 pg·min/mL
- INFα AUC / TNFα AUC ([1]; 6 µmol/kg s.c.): 58
- IFNα AUC ([1]; 12 µmol/kg s.c.): 1.9e+06 pg·min/mL
- TNFα AUC ([1]; 12 µmol/kg s.c.): 44000 pg·min/mL
- INFα AUC / TNFα AUC ([1]; 12 µmol/kg s.c.): 44
- dose ratio, times the molar dose of RSQ leading to comparable amounts of IFNα [1]: 6-10 times
- dose ratio, times the molar dose of RSQ necessary to induce similar levels of TNFα [1]: 30-40 times
- IFNα AUC ([2]; 3 µmol/kg s.c.): 660000 pg·min/mL
- TNFα AUC ([2]; 3 µmol/kg s.c.): 6500 pg·min/mL
- IFNα AUC ([2]; 6 µmol/kg s.c.): 1.3e+06 pg·min/mL
- TNFα AUC ([2]; 6 µmol/kg s.c.): 17000 pg·min/mL
- IFNα AUC ([2]; 12 µmol/kg s.c.): 2.5e+06 pg·min/mL
- TNFα AUC ([2]; 12 µmol/kg s.c.): 35000 pg·min/mL
- time of TNFα plasma peak post treatment ([2]; 3, 6, 12 µmol/kg s.c.): 120 min
- IFNα plasma levels over the study period ([2]; 3, 6, 12 µmol/kg s.c.): stayed elevated over the 8 h period

- TLR8 activity rel. to assay max (human TLR8): 5% ± 3%
- SEAP secretion from HEK-Blue hTLR-8 (human TLR8): close to baseline
SMILES: CCCCc1nc2c(N)nc3ccccc3c2n1CCC1CCN(C(=O)CN(C)CC(=O)N(C)C2CC(C)OC(OC3C(C)C(OC4CC(C)(OC)C(O)C(C)O4)C(C)C(=O)OC(CC)C(C)(O)C(O)C(C)N(C)CC(C)CC3(C)O)C2O)CC1 (centres unmarked) [A1-mac]
- IFNα AUC ([1]; 1 µmol/kg s.c.): 33000 pg·min/mL
- TNFα AUC ([1]; 1 µmol/kg s.c.): 7200 pg·min/mL
- INFα AUC / TNFα AUC ([1]; 1 µmol/kg s.c.): 5
- IFNα AUC ([1]; 3 µmol/kg s.c.): 300000 pg·min/mL
- TNFα AUC ([1]; 3 µmol/kg s.c.): 14000 pg·min/mL
- INFα AUC / TNFα AUC ([1]; 3 µmol/kg s.c.): 22
- IFNα AUC ([1]; 6 µmol/kg s.c.): 1.6e+06 pg·min/mL
- TNFα AUC ([1]; 6 µmol/kg s.c.): 38000 pg·min/mL
- INFα AUC / TNFα AUC ([1]; 6 µmol/kg s.c.): 42
- IFNα AUC ([1]; 12 µmol/kg s.c.): 1.9e+06 pg·min/mL
- TNFα AUC ([1]; 12 µmol/kg s.c.): 65000 pg·min/mL
- INFα AUC / TNFα AUC ([1]; 12 µmol/kg s.c.): 30
- dose ratio, times the molar dose of RSQ leading to comparable amounts of IFNα [1]: 6-10 times
- dose ratio, times the molar dose of RSQ necessary to induce similar levels of TNFα [1]: 30-40 times
- IFNα AUC ([2]; 3 µmol/kg s.c.): 420000 pg·min/mL
- TNFα AUC ([2]; 3 µmol/kg s.c.): 6900 pg·min/mL
- IFNα AUC ([2]; 6 µmol/kg s.c.): 920000 pg·min/mL
- TNFα AUC ([2]; 6 µmol/kg s.c.): 24000 pg·min/mL
- IFNα AUC ([2]; 12 µmol/kg s.c.): 3.1e+06 pg·min/mL
- TNFα AUC ([2]; 12 µmol/kg s.c.): 76000 pg·min/mL
- time of TNFα plasma peak post treatment ([2]; 3, 6, 12 µmol/kg s.c.): 90 min
- IFNα plasma levels over the study period ([2]; 3, 6, 12 µmol/kg s.c.): stayed elevated over the 8 h period

- TLR8 activity rel. to assay max (human TLR8): 4% ± 1%
- SEAP secretion from HEK-Blue hTLR-8 (human TLR8): close to baseline
SMILES: CCCCc1nc2c(N)nc3ccccc3c2n1CC1CCN(C(=O)CN(C)CC(=O)N(C)[C@H]2C[C@@H](C)O[C@@H](O[C@@H]3[C@@H](C)[C@H](O[C@H]4C[C@@](C)(OC)[C@@H](O)[C@H](C)O4)[C@@H](C)C(=O)O[C@H](CC)[C@@](C)(O)[C@H](O)[C@@H](C)N(C)C[C@H](C)C[C@@]3(C)O)[C@@H]2O)CC1 [A2-mac]

- TLR8 activity rel. to assay max (human TLR8): 96% ± 4%
SMILES: CCOCc1nc2c(N)nc3ccccc3c2n1CC(C)(C)O [RSQ, Resiquimod, reference compound]
- IFNα AUC ([1]; 0.1 µmol/kg s.c.): 110000 pg·min/mL
- TNFα AUC ([1]; 0.1 µmol/kg s.c.): 17000 pg·min/mL
- IFNα AUC ([1]; 0.3 µmol/kg s.c.): 560000 pg·min/mL
- TNFα AUC ([1]; 0.3 µmol/kg s.c.): 50000 pg·min/mL
- IFNα AUC ([1]; 1 µmol/kg s.c.): 1.1e+06 pg·min/mL
- TNFα AUC ([1]; 1 µmol/kg s.c.): 120000 pg·min/mL
- IFNα AUC ([1]; 3 µmol/kg s.c.): 970000 pg·min/mL
- TNFα AUC ([1]; 3 µmol/kg s.c.): 150000 pg·min/mL
- TNFα plasma AUC, times larger than the area for any A1 or A1-mac treated group ([2]; 3 µmol/kg RSQ s.c.): about 4 times
- IFNα AUC ([2]; 3 µmol/kg s.c.): 2.2e+06 pg·min/mL
- TNFα AUC ([2]; 3 µmol/kg s.c.): 330000 pg·min/mL
- IFNα AUC ([2]; 6 µmol/kg s.c.): 780000 pg·min/mL
- TNFα AUC ([2]; 6 µmol/kg s.c.): 280000 pg·min/mL
- IFNα AUC ([2]; 12 µmol/kg s.c.): 800000 pg·min/mL
- TNFα AUC ([2]; 12 µmol/kg s.c.): 260000 pg·min/mL
- peak TNFα concentrations, times higher than in A1 or A1-mac groups ([2]; 3, 6, 12 µmol/kg s.c.): over 10 times
- time at which TNFα and IFNα plasma levels fall close to baseline ([2]; 3, 6, 12 µmol/kg s.c.): 240 min
- time of IFNα plasma peak post treatment ([2]; 3, 6, 12 µmol/kg s.c.): 90 min
- time of TNFα plasma peak post treatment ([2]; 3, 6, 12 µmol/kg s.c.): 90 min
- time of maximal IFNα plasma levels post application ([2]; abstract, in vivo murine): 1 h
